Source: ChEMBL document CHEMBL5506059, “Cyanomethylquinolones as a New Class of Potential Multitargeting Broad-Spectrum Antibacterial Agents” (J Med Chem, 2024)
≈ marks a conversion by molar mass, not a printed value. Calls of active or inactive are those of the source. No cut-off for these calls is given here.

Columns and labels:
Pseudomonas aeruginosa [1] = test: Potency index, ratio of ciprofloxacin MIC to test compound MIC for antibacterial activity against Pseudomonas aeruginosa clinical isolate assessed as inhibition of bacterial growth incubated for 24 hrs; format: functional
Staphylococcus aureus [2] = test: Antibacterial activity against Staphylococcus aureus ATCC 25923 assessed as inhibition of bacterial growth incubated for 24 hrs; format: functional
Pseudomonas aeruginosa [3] = test: Antibacterial activity against Pseudomonas aeruginosa clinical isolate assessed as inhibition of bacterial growth incubated for 24 hrs; format: functional
Klebsiella pneumoniae = test: Antibacterial activity against Klebsiella pneumoniae clinical isolate assessed as inhibition of bacterial growth incubated for 24 hrs; format: functional
Pseudomonas aeruginosa [4] = test: Antibacterial activity against Pseudomonas aeruginosa assessed as reduction in metabolic activity by measuring reduction in fluorescence intensity at 0.5 to 2 times MIC incubated for 6 hrs by alamar blue assay; format: functional, organism-based
Staphylococcus aureus [5] = test: Antibacterial activity against methicillin resistant Staphylococcus aureus assessed as reduction in metabolic activity by measuring reduction in fluorescence intensity at 0.5 to 2 times MIC incubated for 6 hrs by alamar blue assay; format: functional, organism-based
Streptococcus pneumoniae = test: Antibacterial activity against Streptococcus pneumoniae ATCC 6305 assessed as inhibition of bacterial growth incubated for 24 hrs; format: functional
Streptococcus pyogenes [6] = test: Antibacterial activity against Streptococcus pyogenes ATCC 19615 assessed as inhibition of bacterial growth incubated for 24 hrs; format: functional
Staphylococcus aureus [7] = test: Antibacterial activity against Staphylococcus aureus ATCC 29213 assessed as inhibition of bacterial growth incubated for 24 hrs; format: functional
[8] = Hemolytic activity in human Red blood cells at 256 ug/ml measured after 1.5 hrs by absorbance based assay relative to control; format: toxicity, cell-based, Erythrocyte; conditions: red blood cells (erythrocytes), at 256 µg/mL, read-out: Activity
Staphylococcus aureus [9] = test: Antibacterial activity against Staphylococcus aureus ATCC 12600 assessed as inhibition of bacterial growth incubated for 24 hrs; format: functional
[10] = system: Staphylococcus epidermidis; test: Antibacterial activity against Staphylococcus epidermidis ATCC 12228 assessed as inhibition of bacterial growth incubated for 24 hrs; format: functional
Pseudomonas aeruginosa [11] = test: Induction of morphological changes in Pseudomonas aeruginosa assessed as appearance of wrinkled bacterial surface at 2 ug/ml incubated for 3 hrs by SEM analysis; format: functional, organism-based; conditions: dose 2.0 µg/ml
Staphylococcus aureus [12] = test: Antibacterial activity against methicillin resistant Staphylococcus aureus clinical isolate assessed as inhibition of bacterial growth incubated for 24 hrs; format: functional
Staphylococcus aureus [13] = test: Potency index, ratio of clinafloxacin MIC to test compound MIC for antibacterial activity against Staphylococcus aureus clinical isolate assessed as inhibition of bacterial growth incubated for 24 hrs; format: functional
Enterococcus faecium = test: Antibacterial activity against Enterococcus faecium ATCC 19434 assessed as inhibition of bacterial growth incubated for 24 hrs; format: functional
Pseudomonas aeruginosa [14] = test: Induction of intracellular ROS generation in Pseudomonas aeruginosa assessed as increase in fluorescence intensity at 2 ug/ml incubated for 6 hrs by DCFH-DA dye based fluorescence analysis; format: functional, organism-based; conditions: dose 2.0 µg/ml
Pseudomonas aeruginosa [15] = test: Resistance development in Pseudomonas aeruginosa assessed as increase in MIC measured after 20 days; format: functional, organism-based; conditions: time 20.0 day
Escherichia coli = test: Antibacterial activity against Escherichia coli ATCC 25922 assessed as inhibition of bacterial growth incubated for 24 hrs; format: functional
Staphylococcus aureus [16] = test: Antibiofilm activity in methicillin resistant Staphylococcus aureus assessed as biofilm eradication measured after 24 hrs by crystal violet staining based analysis; format: functional, organism-based; conditions: dose 1-2 µg/ml
Erythrocyte = test: Hemolytic activity in human Red blood cells assessed as concentration required for 5% hemolysis measured after 1.5 hrs by absorbance based assay; format: toxicity, cell-based
Cell membrane [17] = test: Induction of cell membrane depolarization in methicillin-resistant Staphylococcus aureus assessed as increase in fluorescence intensity at 1 ug/ml measured for 30 mins by DiSC35 dye based fluorescence analysis; format: cell membranes; conditions: dose 1.0 µg/ml
Staphylococcus aureus [18] = test: Potency index, ratio of norfloxacin MIC to test compound MIC for antibacterial activity against Staphylococcus aureus clinical isolate assessed as inhibition of bacterial growth incubated for 24 hrs; format: functional
[19] = Cytotoxicity against HUVEC cells assessed as cell viability at 25 ug/ml measured after 24 hrs by MTT assay relative to control; format: toxicity, cell-based; conditions: human, at 25 µg/mL, read-out: Activity
Enterococcus faecalis [20] = test: Antibacterial activity against Enterococcus faecalis clinical isolate assessed as inhibition of bacterial growth incubated for 24 hrs; format: functional
Streptococcus pyogenes [21] = test: Potency index, ratio of norfloxacin MIC to test compound MIC for antibacterial activity against Streptococcus pyogenes ATCC 19615 assessed as inhibition of bacterial growth incubated for 24 hrs; format: functional
Staphylococcus aureus [22] = test: Induction of morphological changes in methicillin resistant Staphylococcus aureus assessed as appearance of concaved bacterial surface at 2 ug/ml incubated for 3 hrs by SEM analysis; format: functional, organism-based; conditions: dose 2.0 µg/ml
HUVEC = test: Cytotoxicity against HUVEC cells assessed as reduction in cell viability at 0.78 to 25 ug/ml measured after 24 hrs by MTT assay; format: toxicity, cell-based; conditions: human, dose 0.78-25 µg/ml
Staphylococcus aureus [23] = test: Potency index, ratio of ciprofloxacin MIC to test compound MIC for antibacterial activity against Staphylococcus aureus clinical isolate assessed as inhibition of bacterial growth incubated for 24 hrs; format: functional
Pseudomonas aeruginosa [24] = test: Antibacterial activity against Pseudomonas aeruginosa ATCC 27853 assessed as inhibition of bacterial growth incubated for 24 hrs; format: functional
Cell membrane [25] = test: Induction of cell membrane damage in Pseudomonas aeruginosa assessed as increase in nucleic acid leakage at 0 to 2 ug/ml incubated for 12 hrs by optical density based microplate reader analysis; format: cell membranes; conditions: dose 0-2 µg/ml
Pseudomonas aeruginosa [26] = test: Induction of intracellular ROS generation in Pseudomonas aeruginosa assessed as increase in fluorescence intensity at 2 ug/ml incubated for 6 hrs in presence of N-acetyl-L-cysteine by DCFH-DA dye based fluorescence analysis; format: functional, organism-based; conditions: dose 2.0 µg/ml
Enterococcus faecalis [27] = test: Antibacterial activity against vancomycin-resistant Enterococcus faecalis clinical isolate p1-2007226001 assessed as inhibition of bacterial growth incubated for 24 hrs; format: functional
Pseudomonas aeruginosa [28] = test: Potency index, ratio of norfloxacin MIC to test compound MIC for antibacterial activity against Pseudomonas aeruginosa clinical isolate assessed as inhibition of bacterial growth incubated for 24 hrs; format: functional
L02 = test: Cytotoxicity against human L02 cells assessed as reduction in cell viability at 0.78 to 25 ug/ml measured after 24 hrs by MTT assay; format: toxicity, cell-based; conditions: l02, 24 h, dose 0.78-25 µg/ml
Cell membrane [29] = test: Induction of cell membrane permeability in Pseudomonas aeruginosa assessed as increase in fluorescence intensity at 1 to 2 ug/ml incubated for 6 hrs by PI staining based fluorescence analysis; format: cell membranes; conditions: dose 1-2 µg/ml
Enterococcus faecalis [30] = test: Antibacterial activity against vancomycin-resistant Enterococcus faecalis clinical isolate p1-2007225053 assessed as inhibition of bacterial growth incubated for 24 hrs; format: functional
Streptococcus pyogenes [31] = test: Potency index, ratio of ciprofloxacin MIC to test compound MIC for antibacterial activity against Streptococcus pyogenes ATCC 19615 assessed as inhibition of bacterial growth incubated for 24 hrs; format: functional
Staphylococcus aureus [32] = test: Antibacterial activity against methicillin resistant Staphylococcus aureus infected in female ICR mouse assessed as log reduction in bacterial load at 20 mg/kg pre-infected with bacteria for 24 hrs followed by compound administration on wound site every 6 hrs for 2 times and measured 36 hrs post infection; format: functional; conditions: time 12 hrs
Staphylococcus aureus [33] = test: Induction of morphological changes in methicillin resistant Staphylococcus aureus assessed as appearance of wrinkled bacterial surface at 2 ug/ml incubated for 3 hrs by SEM analysis; format: functional, organism-based; conditions: dose 2.0 µg/ml

For N#CCc1cc2c(cc1F)c(=O)c(C(=O)O)cn2C1CC1, the Ratio (Pseudomonas aeruginosa [1]) was 8, the MIC (Staphylococcus aureus [2]) was 4 µg/mL (≈ 14 µM) and the MIC (Pseudomonas aeruginosa [3]) was 0.25 µg/mL (≈ 0.873 µM). For the same molecule, the MIC (Klebsiella pneumoniae) was 1 µg/mL (≈ 3.49 µM), the Activity (Pseudomonas aeruginosa [4]) was “Active” and the Activity (Staphylococcus aureus [5]) was “Active”. The MIC (Streptococcus pneumoniae) was 0.5 µg/mL (≈ 1.75 µM), the MIC (Streptococcus pyogenes [6]) was 0.25 µg/mL (≈ 0.873 µM) and the MIC (Staphylococcus aureus [7]) was 1 µg/mL (≈ 3.49 µM). It also gave a hemolysis at 1.5 h, 256 ug/ml [8] of less than 1%, an MIC (Staphylococcus aureus [9]) of 1 µg/mL (≈ 3.49 µM) and an MIC [10] of 0.5 µg/mL (≈ 1.75 µM). The Activity (Pseudomonas aeruginosa [11]) was “Active”, the MIC (Staphylococcus aureus [12]) was 0.5 µg/mL (≈ 1.75 µM) and the Ratio (Staphylococcus aureus [13]) was 2. The MIC (Enterococcus faecium) was 2 µg/mL (≈ 6.99 µM), the Activity (Pseudomonas aeruginosa [14]) was “Active” and the Activity (Pseudomonas aeruginosa [15]) was “inactive”. For the same molecule, the MIC (Escherichia coli) was 0.5 µg/mL (≈ 1.75 µM), the Activity (Staphylococcus aureus [16]) was “Dose-Dependent Effect” and the HC5 (Erythrocyte) was greater than 10000 µg/mL. The Activity (Cell membrane [17]) was “Active”, the Ratio (Staphylococcus aureus [18]) was 32 and the viability at 24 h, 25 ug/ml [19] was greater than 90%. The MIC (Enterococcus faecalis [20]) was 4 µg/mL (≈ 14 µM), the Ratio (Streptococcus pyogenes [21]) was 128 and the Activity (Staphylococcus aureus [22]) was “Active”. The Activity (HUVEC) was “Non-Toxic”, the Ratio (Staphylococcus aureus [23]) was 8 and the MIC (Pseudomonas aeruginosa [24]) was 0.5 µg/mL (≈ 1.75 µM). The Activity (Cell membrane [25]) was “Active”, the Activity (Pseudomonas aeruginosa [26]) was “inactive” and the MIC (Enterococcus faecalis [27]) was 4 µg/mL (≈ 14 µM). The Ratio (Pseudomonas aeruginosa [28]) was 32, the Activity (L02) was “Non-Toxic” and the Activity (Cell membrane [29]) was “Active”. For the same molecule, the MIC (Enterococcus faecalis [30]) was 0.125 µg/mL (≈ 0.437 µM), the Ratio (Streptococcus pyogenes [31]) was 64 and the “log(activity)” value (Staphylococcus aureus [32]) was roughly 4. The Activity (Staphylococcus aureus [33]) was “Active”.
